# Measured values: patent publication US9017692B2, “Antimicrobial agent, bacterial strain, biosynthesis, and methods of use” (priority 2011, dated 2015)
# Legend:
# PAE.999 = assay: MIC, CLSI broth microdilution, Gram-negative clinical isolates; type: cell-based, Pseudomonas aeruginosa
# Method: (§1) Plates were incubated at 35° C. for 24 h.
# (§2) The activity of paenibacterin was also tested against clinical isolates of the following Gram-negative bacterial strains: four strains of the species Pseudomonas aeruginosa (PAE), three strains of the species Acinetobacter baumannii (ABA), two strains of the species Escherichia coli (ECO), and four strains of the species Klebsiella pneumoniae (KPN). Particularly, the strains of Gram-negative bacteria included polymyxin B-resistant (PMB-R) and polymyxin B-sensitive (PMB-S) strains of each above listed species. The MICs were determined using the above described CLSI broth microdilution method, in which the method was performed with both non-binding surface coated (NBS) and polystyrene (PS) 96-well plates (Tables 11 and 12, respectively). The MICs were generally lower in the NBS 96-well plates as compared to the PS 96-well plates.
# PAE.2325 = assay: as above; type: cell-based, Pseudomonas aeruginosa
# Method: as §1, §2
# PAE.2281 = assay: as above; type: cell-based, Pseudomonas aeruginosa
# Method: as §1, §2
# PAE.44 = assay: as above; type: cell-based, Pseudomonas aeruginosa
# Method: as §1, §2
# Staphylococcus aureus = assay: MIC, summary of Table 13; type: cell-based; settings: Staphylococcus aureus strains of Table 13; NBS plates
# Method: (§3) The activity of paenibacterin against several strains of Gram-positive and Gram-negative foodborne pathogens is summarized in Table 10. The data is reported as minimum inhibitory concentrations (MIC) as an average of three replicates for paenibacterin against the various listed bacterial strains. […] MICs were determined according to the CLSI broth microdilution method (see, Clinical and Laboratory Standards Institute (CLSI). 2009. Methods for dilution antimicrobial susceptibility tests for bacteria that grow aerobically; approved standard. […]. CLSI, Wayne, Pa.). Briefly, HPLC-purified paenibacterin was dissolved in methanol and diluted to appropriate concentration with cation-adjusted Mueller-Hinton II broth (Difco). Aliquots (25 μl) of serially-diluted paenibacterin was dispensed into wells of a 96-well plate; an equal amount of 1/10 diluted overnight bacterial culture was added to wells. Plates were incubated at 35° C. for 24 h. Cell growth after incubation was examined and determined using a microtiter plate reader at 600 nm. Concentration of paenibacterin is determined based on a molecular weight of 1604 Da.
# (§4) The activity of paenibacterin was further tested against clinical isolates of the following Gram-positive bacteria: methicillin-sensitive Staphylococcus aureus (MSSA), methicillin-resistant S. aureus (MRSA), vancomycin-sensitive Enterococcus faecalis, vancomycin-resistant E. faecalis (VRE), Streptococcus pneumoniae, and laboratory derived daptomycin-resistant (DR) MSSA, MRSA, and VRE strains. The MICs were determined using the above described CLSI broth microdilution method, in which the method was performed with non-binding surface coated (NBS) 96-well plates.
# Enterococcus faecalis = assay: MIC, summary of Table 13; type: cell-based; settings: Enterococcus faecalis strains of Table 13; NBS plates
# Method: as §3, §4
# Streptococcus pneumoniae = assay: MIC, summary of Table 13; type: cell-based; settings: NBS plates
# Method: as §3, §4
# L. innocua ATCC 33090 = assay: Spot-on-lawn antimicrobial activity; type: cell-based, Listeria innocua; settings: TSBYE
# Method: Spot-on-lawn method [He, Z., et al., Appl. Environ. Microbiol., (2007) 73:168-178] was used for the bioassay of antimicrobial activity. Bacterial indicators were incubated at 37° C. for 24 h, except Pseudomonas putida, Clostridium difficile and methycillin resistant Staphylococcus aureus which were incubated for 48 h (Table 1). The indicator overlay was prepared by pouring 10 ml soft agar (seeded with 10 μL indicator culture) onto tryptose agar as basal medium in a petri dish. Purified antimicrobials were two-fold serially diluted and aliquots (10 μL each) were spotted onto the soft agar. The plates were incubated overnight and inspected for the presence of growth inhibition zones. Antimicrobial activity was expressed in arbitrary units (AU)/mL; this value is the reciprocal of the highest dilution displaying a zone of inhibition corresponding to 1 mL of the non-diluted antimicrobial preparation.
# Purified paenibacterin was used for the antimicrobial spectrum test. Microorganisms tested for sensitivity to this compound included pathogenic (e.g., Salmonella Typhimurium, Escherichia coli O157:H7, Listeria monocytogenes, and Staphylococcus aureus) and non-pathogenic (e.g., Escherichia coli K-12, Pseudomonas putida, and Enterococcus faecalis) bacteria (Table 1).
# [1] = system: Bacillus cereus ATCC14579; assay: MIC, CLSI broth microdilution, foodborne pathogens; type: cell-based
# Method: as §1
# [2] = system: Listeria monocytogenes Scott A; assay: MIC, CLSI broth microdilution, foodborne pathogens; type: cell-based
# Method: as §1
# [3] = system: Escherichia coli O157:H7 EDL933; assay: MIC, CLSI broth microdilution, foodborne pathogens; type: cell-based
# Method: as §1
# Yersinia enterocolitica = assay: MIC, CLSI broth microdilution, foodborne pathogens; type: cell-based
# Method: as §1
# [4] = based on molecular weight of 1604 Da
substance,measurement,setting,value
paenibacterin,Minimum inhibitory concentration (MIC),PAE.999; NBS 96-well plates,8 µg/mL
same,Minimum inhibitory concentration (MIC),PAE.999; PS 96-well plates,64 µg/mL
same,Minimum inhibitory concentration (MIC),PAE.2325; NBS 96-well plates,16 µg/mL
same,Minimum inhibitory concentration (MIC),PAE.2325; PS 96-well plates,64 µg/mL
same,Minimum inhibitory concentration (MIC),PAE.2281; NBS 96-well plates,32 to 64 µg/mL
same,Minimum inhibitory concentration (MIC),PAE.2281; PS 96-well plates,64 µg/mL
same,Minimum inhibitory concentration (MIC),PAE.44; non-binding surface coated (NBS) 96-well plates,8 µg/mL
same,Minimum inhibitory concentration (MIC),PAE.44; polystyrene (PS) 96-well plates,64 µg/mL
same,MIC,Staphylococcus aureus,32 to 64 µg/mL
same,MIC,Enterococcus faecalis,32 to 64 µg/mL
same,MIC,Streptococcus pneumoniae,32 to 64 µg/mL
same,Antimicrobial activity (AU/ml),L. innocua ATCC 33090,1600 AU/ml
same,Minimum inhibitory concentration (MIC) Average,[1]; average of three replicates,15.6 µg/mL
same,Minimum inhibitory concentration (MIC) Average,[1]; [4],9.74 µM
same,Minimum inhibitory concentration (MIC) Average,[2]; average of three replicates,1.95 µg/mL
same,Minimum inhibitory concentration (MIC) Average,[2]; [4],1.22 µM
same,Minimum inhibitory concentration (MIC) Average,[3]; average of three replicates,7.81 µg/mL
same,Minimum inhibitory concentration (MIC) Average,[3]; [4],4.87 µM
same,Minimum inhibitory concentration (MIC) Average,Yersinia enterocolitica; average of three replicates,3.26 µg/mL
same,Minimum inhibitory concentration (MIC) Average,Yersinia enterocolitica; [4],2.03 µM
